Reference: US20240092756A1, “METHODS AND COMPOSITION FOR KRAS MODIFICATIONS” (2692372 ONTARIO, INC., priority 2020, published 2024)

Key:
[1] = test system: phospho-ERK1/2 in MIA PaCa-2 cells (express KRAS G12C); test: ERK1/2 phosphorylation in MIA PaCa-2 cells; type: cell-based, human; set-up: key: X: KRAS G12C bound and modulated in cells
Protocol: MIA PaCa-2 cells were cultured in Dulbecco's Modified Eagle's Medium (Wisent) supplemented with 10% FBS, 2.5% horse serum, and 1% penicillin/streptomycin. Cells were seeded in 6-well plates at 500,000 cells/well and incubated at 37° C., 5% CO2 for 16 hours. Cells were treated with the indicated concentrations of compound or DMSO alone and incubated at 37° C., 5% CO2 for 6 or 24 hours. Conditioned media was discarded, and adherent cells were washed with PBS before they were scraped. Cell suspensions were centrifugated at 2,000 RPM for 5 minutes at 4° C. and supernatants were discarded. Cell pellets were resuspended with 1×RIPA buffer (Millipore) and incubated on ice for 15 minutes. Protein lysates were extracted by centrifugating at 20,000 RPM for 20 minutes at 4° C. Proteins were separated and total KRas protein levels were quantified by Simple Western Immunoassay (ProteinSimple) using the 2-40 kDa Separation Module for Jess according to the manufacturer's protocol, using a protein concentration of 0.5 μg/μl and antibodies targeting KRas (clone #4F3, Sigma) and GAPDH (clone #14C10, Cell Signaling) diluted to 1:10 and 1:1600, respectively, where the latter was used as a loading control. A 3:1 ratio of rabbit to mouse HRP-conjugated secondary antibodies was used for detection. KRas protein levels were quantified relative to GAPDH loading levels and subsequently normalized to the DMSO control. Phosphorylated ERK1/2 levels were quantified by Simple Western Immunoassay (ProteinSimple) using the Protein Normalization Assay Module for Jess according to the manufacturer's protocol using a protein concentration of 0.5 μg/μl and an antibody targeting phosphor-ERK1/2 (clone #D13.14.4E, Cell Signalling) diluted to 1:10. Phosphorylated ERK1/2 levels were normalized to the Jess Protein Normalization Reagent loading control and subsequently to the DMSO control.
MIA PaCa-2 cells were cultured in Dulbecco's Modified Eagle's Medium (Wisent) supplemented with 10% FBS, 2.5% horse serum, and 1% penicillin/streptomycin. Cells were seeded in 96-well plates at a density of 25,000 cells/well and incubated at 37° C., 5% CO2 for 24 hours. The next day, cells were starved in cell culture media containing 1% FBS only at 37° C., 5% CO2 for 16 hours. Following starvation, serially-diluted compounds or DMSO alone were added to cells and incubated at 37° C., 5% CO2 for 1 or 3 hours. Prior to cell lysis, 25 ng/ml human epidermal growth factor (hEGF) (Sigma) was added to the cells and incubated at 37° C., 5% CO2 for 10 minutes. Conditioned media was discarded, and adherent cells lysed and basal ERK1/2 phosphorylation levels were measured using the Phospho-ERK (Thr202/Tyr204) Cellular HTRF kit (Perkin Elmer) according to the manufacturer's protocol. The fluorescent signal of the acceptor antibody at a wavelength of 665 nm was normalized to that of the donor antibody at 620 nm. HTRF ratios were plotted and relative IC50 values were obtained using Prism (GraphPad).

KRAS G12C = KRAS G12C (Homo sapiens, UniProt P01116, G12C); test: SOS1-catalyzed KRAS coupled nucleotide exchange assay (Alpha technology); type: biochemical; set-up: His; key: A: KRAS G12C bound and modulated; details: inhibition of SOS1 mediated KRAS nucleotide exchange
Protocol: Method I: The inhibition of the SOS1-catalyzed nucleotide exchange activity of KRAS (e.g., KRAS G12C/C118A) was measured using Alpha (Amplified Luminescent Proximity Homogeneous Assay) technology. 20 nM GDP-bound human KRAS (G12C/C118A) protein was incubated with two-fold serially-diluted test compound or DMSO for 5 minutes at ambient temperature in reaction buffer (25 mM HEPES, pH 7.4; 10 mM MgCl2; 0.01% Triton X-100). For all subsequent steps, DTT was added to the reaction buffer at a final concentration of 1 mM. Next, GTP and SOS-1 were added in DTT-reaction buffer at final concentrations of 1.25 mM or 500 nM, respectively, and incubated at RT for 30 minutes. Finally, c-RAF RBD (50 nM final), Alpha glutathione donor beads (PerkinElmer; 20 μg/mL final), and AlphaLISAnickel chelate acceptor beads (PerkinElmer; 20 μg/mL final), all diluted in DTT-reaction buffer, were added. The reaction mixture was incubated at RT for 5 min, and then the plates were read on an EnVision® Multilabel Reader using the AlphaScreen protocol. Luminescence signal was measured at 570 nm following a 180 ms excitation at 680 nm. Signal intensity corresponded with the association of c-RAF RBD with GTP-bound KRAS G12C/C118A and was normalized to DMSO control.
Method II: Inhibition of the SOS1-catalyzed nucleotide exchange activity of KRAS^G12C was measured using Alpha technology (PerkinElmer). 50 nM GDP-bound human KRAS^G12C protein was incubated with serially-diluted compound or DMSO for 2 hrs at RT in RBD-RAS binding buffer (BPSBioscience). 1 mM GTP and 500 nM SOS-1 were added to the reaction mixture and incubated at RT for 30 min. GST-tagged RBD-cRAF was then added to the reaction mixture at a final concentration of 2.5 nM and incubated at RT for 30 min. Finally, Alpha Glutathione acceptor beads and Nickel chelate donor beads (PerkinElmer) were diluted to 1:500 and 1:250, respectively, and added to the reaction mixture. The final reaction was incubated at RT for 30 min. Plates were read on a TECAN SPARK® Multiplate Reader. The luminescence signal was measured at 615 nm following excitation at 680 nm. Signal intensity was normalized to DMSO control.

[2] = target: KRAS G12C Lite (SEQ ID NO:3) (Homo sapiens, UniProt P01116, C118S/C51S/C80S/G12C/S136P/S39C); test: Intact mass analysis (LC-MS) of covalent modification, KRAS G12C Lite; type: binding; set-up: key to KRAS Lite Modification: a: KRAS Lite modified; details: for KRAS Lite Modification: intact mass spectrometry, covalent modification of KRAS G12C Lite
Protocol: (§1) The covalent modification of the proteins with the compounds were evaluated using intact mass analysis by liquid chromatography-mass spectrometry instrument (LC-MS/MS).
(§2) The reaction solution (20 μL) was prepared in 96-well plate and contained the protein (2 μM), the compound (100 μM), HEPES buffer (20 mM, pH 8), 2% DMSO, 2% glycerol, and 150 mM NaCl. The reaction was allowed to proceed for 24 h at 25° C. The reaction solution (1 μL) was injected into the LC/MS/MS without any further sample preparation.
(§3) The LC-MS/MS instrument comprises of a Waters G2-XS quadrupole-time of flight (QTof) mass spectrometer and a Waters Acuity I-class Ultra-High Performance Liquid Chromatography (UPLC) system. The I-class UPLC system includes a binary solvent manager (BSM), and an Acquity sample manager (SM). The mobile phase consisted of: A) 0.1% (v/v) formic acid in MilliQ water; B) 0.1% (v/v) formic acid acetonitrile. Gradients were run over 5 min and proceeded as follows: A:B, 85:15, 0.0-0.7 min, 85:15→15:85, 0.7-1.5 min, 10:90, 1.5-4 min, 10:90→85:15, 4-4.5 min, 85:15, 4.5-5 min. The analytical column was a Waters BEH C4 column 1.7 μm (50×1 mm) column with pore sizes of 300 Å. The TOF MS data was collected in positive ion mode (m/z of 400-2000 Da) using MassLynx software (Waters).
(§4) The spectral deconvolution was performed using UNIFI software (Waters). The added mass of the protein upon covalent modification to cysteine residues were specified. Multiple modification of up to 8 cysteine was allowed. All the adducts with signal intensities of <2% of the base peak were ignored. The % modification was calculated as the adduct signal intensity over the total intensities of the protein peaks and the adducts.

[3] = target: T1, KRAS G12C (SEQ ID NO:1 or SEQ ID NO:2) (Homo sapiens, UniProt P01116, G12C); test: Intact mass analysis (LC-MS) of covalent modification, KRAS G12C; type: binding; set-up: key to KRAS G12C Modification: b: KRAS G12C modified; details: for KRAS G12C Modification: intact mass spectrometry, covalent modification of KRAS G12C FL
T1 construct: purchased
Protocol: as §1, §2, §3, §4

[4] = modification by one molecule of compound

SMILES	KRAS-SOS1 Nucleotide Exchange (KRAS G12C)	KRAS Lite Modification [2]	KRAS G12C Modification [3]	covalent adduct mass, His-tagged KRAS G12C Lite [2, 4]	covalent adduct mass, His-tagged KRAS G12C [3, 4]	pERK - MIA PaCa-2 - (6 hours, 5 uM) [1]
Cc1ccnc(C(C)C)c1-n1c(=O)nc(N2CCN(S(=O)(=O)c3c(F)c(F)c(F)c(F)c3F)C[C@@H]2C)c2cc(F)c(-c3c(O)cccc3F)nc21 [Compound 1A, 6-fluoro-7-(2-fluoro-6-hydroxyphenyl)-1-(2-isopropyl-4-methylpyridin-3-yl)-4-((S)-2-methyl-4-((perfluorophenyl)sulfonyl)piperazin-1-yl)pyrido[2,3-d]pyrimidin-2(1H)-one]	A	a	b	22,179 Da	22,070 Da	X
COc1c(F)c(F)c(F)c(F)c1S(=O)(=O)N1CCN(c2nc(=O)n(-c3c(C)ccnc3C(C)C)c3nc(-c4c(O)cccc4F)c(F)cc23)[C@@H](C)C1 [Compound 5A, 6-fluoro-7-(2-fluoro-6-hydroxyphenyl)-1-(2-isopropyl-4-methylpyridin-3-yl)-4-((S)-2-methyl-4-((2,3,4,5-tetrafluoro-6-methoxyphenyl)sulfonyl)piperazin-1-yl)pyrido[2,3-d]pyrimidin-2(1H)-one]	A		b			X
Cc1cccc(C)c1-c1ccc2cc(CNS(=O)(=O)c3c(F)c(F)c(F)c(F)c3F)cnc2c1 [Compound 19A, N-[[7-(2,6-dimethylphenyl)-3-quinolyl]methyl]-2,3,4,5,6-pentafluoro-benzenesulfonamide]		a	b			X
O=C(COc1ccc(Cl)cc1Cl)N1CCN(S(=O)(=O)c2c(F)c(F)c(F)c(F)c2C(F)(F)F)CC1 [Compound 51A, 2-(2,4-dichlorophenoxy)-1-(4-((2,3,4,5-tetrafluoro-6-(trifluoromethyl)phenyl)sulfonyl)piperazin-1-yl)ethan-1-one]			b			

More lines, main results first:

KRAS-SOS1 Nucleotide Exchange (KRAS G12C)	KRAS Lite Modification [2]	KRAS G12C Modification [3]	covalent adduct mass, His-tagged KRAS G12C Lite [2, 4]	covalent adduct mass, His-tagged KRAS G12C [3, 4]	SMILES	pERK - MIA PaCa-2 - (6 hours, 5 uM) [1]
A	a	b			Cc1ccnc(C(C)C)c1-n1c(=O)nc(N2CCN(S(=O)(=O)c3c(F)c(F)c(F)c(F)c3OC(F)F)C[C@@H]2C)c2cc(F)c(-c3c(O)cccc3F)nc21 (single isomer, unassigned) [Compound 17A]	X
A	a	b			Cc1ccnc(C(C)C)c1-n1c(=O)nc(N2CCN(S(=O)(=O)c3c(F)c(F)c(F)c(F)c3OC(F)F)C[C@@H]2C)c2cc(F)c(-c3c(O)cccc3F)nc21 (single isomer, unassigned) [Compound 18A]	X
A	a	b			Cc1ccnc(C(C)C)c1-n1c(=O)nc(N2CCN(S(=O)(=O)c3c(F)c(F)c(F)c(F)c3F)C[C@@H]2C)c2cc(F)c(Cl)nc21 [Compound 2A, 7-chloro-6-fluoro-1-(2-isopropyl-4-methylpyridin-3-yl)-4-((S)-2-methyl-4-((perfluorophenyl)sulfonyl)piperazin-1-yl)pyrido[2,3-d]pyrimidin-2(1H)-one]	
A	a	b			Cc1ccnc(C(C)C)c1-n1c(=O)nc(NS(=O)(=O)c2c(F)c(F)c(F)c(F)c2F)c2cc(F)c(-c3c(O)cccc3F)nc21 [Compound 3A, 2,3,4,5,6-pentafluoro-N-(6-fluoro-7-(2-fluoro-6-hydroxyphenyl)-1-(2-isopropyl-4-methylpyridin-3-yl)-2-oxo-1,2-dihydropyrido[2,3-d]pyrimidin-4-yl)benzenesulfonamide]	X
A	a	b			Cc1ccnc(C(C)C)c1-n1c(=O)nc(N2CCN(S(=O)(=O)c3c(F)c(F)c(F)c(F)c3OC(F)F)C[C@@H]2C)c2cc(F)c(-c3c(O)cccc3F)nc21 [Compound 16A, 4-((S)-4-((2-(difluoromethoxy)-3,4,5,6-tetrafluorophenyl)sulfonyl)-2-methylpiperazin-1-yl)-6-fluoro-7-(2-fluoro-6-hydroxyphenyl)-1-(2-isopropyl-4-methylpyridin-3-yl) pyrido[2,3-d]pyrimidin-2(1H)-one]	
		b			O=C(COc1ccc(Cl)cc1Cl)NC1CN(S(=O)(=O)c2c(F)c(F)c(F)c(F)c2F)C1 [Compound 50A, 2-(2,4-dichlorophenoxy)-N-(1-((perfluorophenyl)sulfonyl)azetidin-3-yl)acetamide]	
